From US20250059174A1, “Pharmaceutical Compounds and Compositions as C-Kit Kinase Inhibitors” (Enanta Pharmaceuticals, Inc., priority 2023, published 2025)

What was measured:
[1] = target: Recombinant human c-KIT kinase (Homo sapiens (Human), UniProt P10721); assay: c-KIT kinase chemiluminescence assay (ADP-Glo); type: biochemical; details: ATP 50 μM
In short: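 ADP formed by c-KIT on polyEY over 2 h at RT (after 30 min enzyme preincubation; Tris pH 7.5, MgCl2, BSA, DTT buffer) was detected by ADP-Glo luminescence. IC50 and Hill slope were fitted to control-normalized activity across compound concentrations.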

M-07e cells = assay: M-07e cellular assay (SCF-mediated cell proliferation); type: cell-based; details: Homo sapiens, 72 hours, CellTiter Glo
In short: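 CellTiter Glo luminescence after 72 h compound exposure in SCF (EC90)-stimulated M-07e cells expressing endogenous human c-KIT.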

Chain of Recombinant human c-KIT kinase (P10721 26-976): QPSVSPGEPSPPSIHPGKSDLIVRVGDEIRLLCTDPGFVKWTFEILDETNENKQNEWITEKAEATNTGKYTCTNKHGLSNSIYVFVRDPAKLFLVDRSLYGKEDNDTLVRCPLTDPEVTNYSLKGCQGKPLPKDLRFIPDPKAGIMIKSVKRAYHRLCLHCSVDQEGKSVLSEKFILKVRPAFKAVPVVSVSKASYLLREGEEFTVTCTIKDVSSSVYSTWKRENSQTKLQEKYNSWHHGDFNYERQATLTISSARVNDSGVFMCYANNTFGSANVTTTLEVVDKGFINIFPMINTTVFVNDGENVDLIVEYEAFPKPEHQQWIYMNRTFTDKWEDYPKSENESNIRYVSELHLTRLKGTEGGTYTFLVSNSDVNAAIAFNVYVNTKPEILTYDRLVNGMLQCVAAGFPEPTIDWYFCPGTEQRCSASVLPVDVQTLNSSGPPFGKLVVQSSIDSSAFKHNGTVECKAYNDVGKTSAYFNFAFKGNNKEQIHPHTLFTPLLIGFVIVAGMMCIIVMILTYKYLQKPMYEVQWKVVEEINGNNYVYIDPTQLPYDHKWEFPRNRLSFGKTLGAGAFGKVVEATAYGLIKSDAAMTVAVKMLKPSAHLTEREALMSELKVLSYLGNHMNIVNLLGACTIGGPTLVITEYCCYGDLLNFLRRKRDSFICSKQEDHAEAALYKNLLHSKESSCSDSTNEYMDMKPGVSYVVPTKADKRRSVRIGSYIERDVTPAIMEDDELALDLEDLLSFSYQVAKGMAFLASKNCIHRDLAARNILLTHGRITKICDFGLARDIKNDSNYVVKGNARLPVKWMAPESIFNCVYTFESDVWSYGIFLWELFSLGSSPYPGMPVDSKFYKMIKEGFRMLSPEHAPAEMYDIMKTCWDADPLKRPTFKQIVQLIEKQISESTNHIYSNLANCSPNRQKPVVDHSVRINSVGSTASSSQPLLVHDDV

| SMILES | IC50 [1] | EC50 (M-07e cells) |
| --- | --- | --- |
| Cc1cc(C)c(-c2ccn3ncc(C(=O)Nc4cc(-c5noc([C@H]6C[C@@H]6F)n5)ccc4C)c3c2)c(C)c1 [Example 171-2] | > 1000 nM | > 1000 nM |
| Cc1nc(C)c(-c2ccn3ncc(C(=O)Nc4cc(-c5noc([C@H]6C[C@@H](OC(F)(F)F)C6)n5)ccc4C)c3c2)c(C)n1 [Example 171-5] | 100 to 1000 nM | 100 to 1000 nM |
| Cc1ccc(-c2noc([C@H]3C[C@@H](OC(F)(F)F)C3)n2)cc1NC(=O)c1cnn2ccc(-c3c(C)nc(N)nc3C)cc12 [Example 171-7] | 100 to 1000 nM | 100 to 1000 nM |
| Cc1ccc(-c2noc([C@H]3C[C@@H]3F)n2)cc1NC(=O)c1cnn2ccc(-c3c(C)nc(N4CCC4)nc3C)cc12 [Example 171-12] | 100 to 1000 nM | 100 to 1000 nM |
| Cc1ccc(-c2ccn3ncc(C(=O)Nc4cc(-c5noc([C@H]6C[C@@H]6F)n5)ccc4C)c3c2)c(C)n1 [Example 171-15] | < 100 nM | < 100 nM |
| Cc1ccc(-c2noc([C@H]3C[C@@H]3F)n2)cc1NC(=O)c1cnn2ccc(-c3ccc(C#N)nc3C)cc12 [Example 171-16] | < 100 nM | < 100 nM |
| Cc1ccc(-c2noc([C@H]3C[C@@H]3F)n2)cc1NC(=O)c1cnn2ccc(-c3ccc(N4CC5(COC5)C4)nc3C)cc12 [Example 171-19] | < 100 nM | < 100 nM |
| COc1ccc(-c2ccn3ncc(C(=O)Nc4cc(-c5noc([C@H]6C[C@@H]6F)n5)ccc4C)c3c2)c(C)n1 [Example 171-20] | < 100 nM | < 100 nM |
| Cc1ccc(-c2noc([C@H]3C[C@@H]3F)n2)cc1NC(=O)c1cnn2ccc(-c3cc(C(F)(F)F)nn3C)cc12 [Example 171-22] | 100 to 1000 nM | 100 to 1000 nM |
| Cc1ccc(-c2noc([C@H]3C[C@@H]3F)n2)cc1NC(=O)c1cnn2ccc(-c3cc(C(F)(F)F)nn3C(C)C)cc12 [Example 171-23] | > 1000 nM | > 1000 nM |
| Cc1ccc(-c2noc([C@H]3C[C@@H]3F)n2)cc1NC(=O)c1cnn2ccc(-c3cnc(N4CC(F)(F)C4)cc3C)cc12 [Example 171-24] | < 100 nM | < 100 nM |
| Cc1cc(C)c(-c2ccn3ncc(C(=O)Nc4cc(-c5noc([C@H]6C[C@@H]6F)n5)ccc4C)c3c2)cn1 [Example 171-26] | < 100 nM | < 100 nM |
| Cc1ccc(-c2noc([C@H]3C[C@@H]3F)n2)cc1NC(=O)c1cnn2ccc(-c3cnc(N)cc3C)cc12 [Example 171-28] | < 100 nM | < 100 nM |
| Cc1ccc(-c2noc([C@H]3C[C@@H]3F)n2)cc1NC(=O)c1cnn2ccc(-c3ccc(N)nc3C)cc12 [Example 171-29] | < 100 nM | < 100 nM |
| Cc1cnc(-c2ccn3ncc(C(=O)Nc4cc(-c5noc([C@H]6C[C@@H]6F)n5)ccc4C)c3c2)c(C)n1 [Example 171-30] | < 100 nM | < 100 nM |
| Cc1nccc(-c2ccn3ncc(C(=O)Nc4cc(-c5noc([C@H]6C[C@@H]6F)n5)ccc4C)c3c2)n1 [Example 171] | < 100 nM | < 100 nM |
| Cc1ccc(-c2noc([C@H]3C[C@@H]3F)n2)cc1NC(=O)c1cnn2ccc(N3CCC4(COC4)C3)cc12 [Example 173] | < 100 nM | < 100 nM |
| Cc1ccc(-c2noc([C@H]3C[C@@H]3F)n2)cc1NC(=O)c1cnn2ccc(N3C[C@@H](CS(C)(=O)=O)[C@@H]3C)cc12 [Example 174] | < 100 nM | < 100 nM |

| SMILES | IC50 [1] | EC50 (M-07e cells) |
| --- | --- | --- |
| Cc1ccc(-c2noc([C@H]3C[C@@H]3F)n2)cc1NC(=O)c1cnn2ccc(N3C[C@@H](CS(C)(=O)=O)[C@H]3C)cc12 [Example 175] | < 100 nM | < 100 nM |
| Cc1ccc(-c2noc([C@H]3C[C@@H]3F)n2)cc1NC(=O)c1cnn2ccc(N3CCC34COC4)cc12 [Example 176] | < 100 nM | < 100 nM |
| Cc1ccc(-c2noc([C@H]3C[C@@H]3F)n2)cc1NC(=O)c1cnn2ccc(N3CC4(CN(CC(F)(F)F)C4)C3)cc12 [Example 177] | < 100 nM | < 100 nM |
| Cc1ccc(-c2noc([C@H]3C[C@@H]3F)n2)cc1NC(=O)c1cnn2ccc(N3CC4(CNC(=O)C4)C3)cc12 [Example 178] | < 100 nM | < 100 nM |
| Cc1ccc(-c2noc([C@H]3C[C@@H]3F)n2)cc1NC(=O)c1cnn2ccc(N3CC(C(C)(C)O)C3)cc12 [Example 179] | < 100 nM | < 100 nM |
| Cc1ccc(-c2noc([C@H]3C[C@@H]3F)n2)cc1NC(=O)c1cnn2ccc(N3CC(O)(C(F)(F)F)C3)cc12 [Example 180] | < 100 nM | < 100 nM |
| Cc1ccc(-c2noc([C@H]3C[C@@H]3F)n2)cc1NC(=O)c1cnn2ccc(N3CC4(C3)CC(C)(O)C4)cc12 [Example 181] | < 100 nM | < 100 nM |
| Cc1ccc(-c2noc([C@H]3C[C@@H]3F)n2)cc1NC(=O)c1cnn2ccc(N3CC4(CCOC4)C3)cc12 [Example 183] | < 100 nM | < 100 nM |
| Cc1ccc(-c2noc([C@H]3C[C@@H]3F)n2)cc1NC(=O)c1cnn2ccc(N3CCC4(CC3)CC(C)(O)C4)cc12 [Example 184] | < 100 nM | < 100 nM |
| COC1CC2(C1)CN(c1ccn3ncc(C(=O)Nc4cc(-c5noc([C@H]6C[C@@H]6F)n5)ccc4C)c3c1)C2 [Example 186] | < 100 nM | < 100 nM |
| Cc1ccc(-c2noc([C@H]3C[C@@H]3F)n2)cc1NC(=O)c1cnn2ccc(N3CC4(C3)CS(=O)(=O)C4)cc12 [Example 187] | < 100 nM | < 100 nM |
| Cc1ccc(-c2noc([C@H]3C[C@@H]3F)n2)cc1NC(=O)c1cnn2ccc(N3CC4(CCN(CC(F)(F)F)C4)C3)cc12 [Example 188] | 100 to 1000 nM | 100 to 1000 nM |
| Cc1ccc(-c2noc([C@H]3C[C@@H]3F)n2)cc1NC(=O)c1cnn2ccc(N3C4COCC3C4)cc12 [Example 189] | < 100 nM | < 100 nM |
| Cc1ccc(-c2noc([C@H]3C[C@@H]3F)n2)cc1NC(=O)c1cnn2ccc(N3CCN(C(=O)OC(C)(C)C)C[C@@H]3C)cc12 [Example 191] | < 100 nM | < 100 nM |
| Cc1ccc(-c2noc([C@H]3C[C@@H]3F)n2)cc1NC(=O)c1cnn2ccc(N3CC[C@@H](NC(=O)OC(C)(C)C)C3)cc12 [Example 192] | 100 to 1000 nM | 100 to 1000 nM |
| Cc1ccc(-c2noc([C@H]3C[C@@H]3F)n2)cc1NC(=O)c1cnn2ccc(N3CC[C@H](NC(=O)OC(C)(C)C)C3)cc12 [Example 193] | 100 to 1000 nM | 100 to 1000 nM |
| Cc1ccc(-c2noc([C@H]3C[C@@H]3F)n2)cc1NC(=O)c1cnn2ccc(N3CC4CC(C3)O4)cc12 [Example 194] | < 100 nM | < 100 nM |
| Cc1ccc(-c2noc([C@H]3C[C@@H]3F)n2)cc1NC(=O)c1cnn2ccc(N3CCNC[C@H]3C)cc12 [Example 195] | < 100 nM | 100 to 1000 nM |

Now from value to compound, other results behind:

| IC50 [1] | SMILES | EC50 (M-07e cells) |
| --- | --- | --- |
| > 1000 nM | Cc1cc(C)c(-c2ccn3ncc(C(=O)Nc4cc(-c5noc([C@H]6C[C@@H](OC(F)(F)F)C6)n5)ccc4C)c3c2)c(C)c1 [Example 171-3] | > 1000 nM |
| 100 to 1000 nM | Cc1nc(C)c(-c2ccn3ncc(C(=O)Nc4cc(-c5noc([C@H]6C[C@@H]6F)n5)ccc4C)c3c2)c(C)n1 [Example 171-4] | 100 to 1000 nM |
| 100 to 1000 nM | Cc1ccc(-c2noc([C@H]3C[C@@H]3F)n2)cc1NC(=O)c1cnn2ccc(-c3c(C)nc(N)nc3C)cc12 [Example 171-6] | < 100 nM |
| 100 to 1000 nM | Cc1ccc(-c2noc([C@H]3C[C@@H]3F)n2)cc1NC(=O)c1cnn2ccc(-c3c(C)nc(Cl)nc3C)cc12 [Example 171-8] | 100 to 1000 nM |
| < 100 nM | Cc1ccc(-c2noc([C@H]3C[C@@H]3F)n2)cc1NC(=O)c1cnn2ccc(-c3cnccn3)cc12 [Example 171-9] | < 100 nM |
| > 1000 nM | Cc1ncc(-c2noc([C@H]3C[C@@H]3F)n2)cc1NC(=O)c1cnn2ccc(-c3c(C)nc(N)nc3C)cc12 [Example 171-10] | > 1000 nM |
| 100 to 1000 nM | Cc1ccc(-c2noc([C@H]3C[C@@H]3F)n2)cc1NC(=O)c1cnn2ccc(-c3c(C)nc(N4CC(F)(F)C4)nc3C)cc12 [Example 171-13] | 100 to 1000 nM |
| 100 to 1000 nM | Cc1ccc(-c2noc([C@H]3C[C@@H]3F)n2)cc1NC(=O)c1cnn2ccc(-c3c(C)nc(N4CC5(COC5)C4)nc3C)cc12 [Example 171-14] | 100 to 1000 nM |
| < 100 nM | Cc1ccc(-c2noc([C@H]3C[C@@H]3F)n2)cc1NC(=O)c1cnn2ccc(-c3ccc(N4CC(F)(F)C4)nc3C)cc12 [Example 171-17] | < 100 nM |
| < 100 nM | Cc1ccc(-c2noc([C@H]3C[C@@H]3F)n2)cc1NC(=O)c1cnn2ccc(-c3ccc(N4CCOCC4)nc3C)cc12 [Example 171-18] | < 100 nM |
| < 100 nM | Cc1ccc(-c2noc([C@H]3C[C@@H]3F)n2)cc1NC(=O)c1cnn2ccc(-c3cnc(N4CC5(COC5)C4)cc3C)cc12 [Example 171-25] | < 100 nM |
| 100 to 1000 nM | CC(=O)Nc1nc(C)c(-c2ccn3ncc(C(=O)Nc4cc(-c5noc([C@H]6C[C@@H]6F)n5)ccc4C)c3c2)c(C)n1 [Example 171-31] | < 100 nM |
| < 100 nM | Cc1ccc(-c2noc([C@H]3C[C@@H]3F)n2)cc1NC(=O)c1cnn2ccc(N3CC(CO)(CCl)C3)cc12 [Example 182] | < 100 nM |
| < 100 nM | Cc1ccc(-c2noc([C@H]3C[C@@H]3F)n2)cc1NC(=O)c1cnn2ccc(N3CC4(CCN(CC(F)F)C4)C3)cc12 [Example 185] | < 100 nM |
| 100 to 1000 nM | Cc1ccc(-c2noc([C@H]3C[C@@H]3F)n2)cc1NC(=O)c1cnn2ccc(N3CCN(C(=O)OC(C)(C)C)C[C@H]3C)cc12 [Example 190] | 100 to 1000 nM |
| < 100 nM | Cc1ccc(-c2noc([C@H]3C[C@@H]3F)n2)cc1NC(=O)c1cnn2ccc(N3CCNC[C@@H]3C)cc12 [Example 196] | < 100 nM |
